Reference: ChEMBL document CHEMBL1126954, “Synthesis and antimalarial activity of some 9-substituted artemisinin derivatives” (J Med Chem, 1993)
Converted amounts (≈) assume the structure as drawn.

What was measured:
Type in all cases: functional, organism-based
[1] = system: Plasmodium falciparum; test: In vitro antimalarial activity against Plasmodium falciparum W-2 (Indochina)
[2] = system: Plasmodium falciparum; test: In vitro antimalarial activity against Plasmodium falciparum D6 Sierra Leone relative to artemisinin
[3] = system: Plasmodium falciparum; test: In vitro antimalarial activity against Plasmodium falciparum D6 Sierra Leone
[4] = system: Plasmodium falciparum; test: In vitro antimalarial activity relative to artemisinin against Plasmodium falciparum W-2 (Indochina)
[5] = system: Plasmodium falciparum; test: In vitro antimalarial activity against Plasmodium falciparum D-6 Sierra Leone relative to artemisinin; Not active <= 5000 ng/mL
[6] = system: Plasmodium falciparum; test: In vitro antimalarial activity against Plasmodium falciparum W-2 (Indochina) relative to artemisinin; Not active at <5000 ng/mL
[7] = system: Plasmodium falciparum; test: In vitro antimalarial activity against Plasmodium falciparum D6 (Sierra Leone); Not active <= 5000 ng/mL
[8] = system: Plasmodium falciparum; test: In vitro antimalarial activity relative to artemisinin against Plasmodium falciparum W2 (Indochina); Not active <= 5000 ng/mL

Row | Compound | IC50 [1] | IC50 ratio [2] | IC50 [3] | IC50 ratio [4] | IC50 [5] | IC50 [6] | IC50 [7] | IC50 [8] | IC50 ([4]; Plasmodium falciparum)
1 | C=C1C2CC[C@@H](C)C3CC[C@@]4(C)OO[C@@]23[C@H](O[C@@H]1OO)O4 (stereo partly drawn) | 8.12 ng/mL (≈ 0.0272 µM) | 2 | 4.08 ng/mL (≈ 0.0137 µM) | 8 | – | – | – | – | –
2 | C[C@@H]1CCC2[C@]34OO[C@](C)(CCC13)O[C@H]4OC(=O)[C@@]21CCN=N1 (stereo partly drawn) | 447 ng/mL (≈ 1.39 µM) | 280 | 604 ng/mL (≈ 1.87 µM) | 408 | – | – | – | – | –
3 | C[C@@H]1CCC2[C@]34OO[C@](C)(CCC13)O[C@H]4OC(=O)[C@@]2(Br)CBr (stereo partly drawn) | 67 ng/mL (≈ 0.152 µM) | 26 | 77 ng/mL (≈ 0.175 µM) | 44 | – | – | – | – | –
4 | C[C@@H]1CCC2[C@]34OO[C@](C)(CCC13)O[C@H]4O[C@H](OO)[C@@]21CO1 (stereo partly drawn) | 4.5 ng/mL (≈ 0.0143 µM) | 1.3 | 2.8 ng/mL (≈ 0.00891 µM) | 4.2 | – | – | – | – | –
5 | C[C@@H]1CCC2[C@]34OO[C@](C)(CCC13)O[C@H]4OC(=O)[C@]21CO1 (stereo partly drawn) | – | – | – | – | Not Active | Not Active | Not Active | Not Active | –
6 | CSC1=NN=C2C3CC[C@@H](C)C4CC[C@@]5(C)OO[C@@]34[C@H](OC2(O)S1)O5 (stereo partly drawn) | 564 ng/mL (≈ 1.46 µM) | 305 | 789 ng/mL (≈ 2.04 µM) | 429 | – | – | – | – | –
7 | C[C@@H]1CCC2[C@]34OO[C@](C)(CCC13)O[C@H]4O[C@H](OO)[C@]21CO1 (stereo partly drawn) | 4 ng/mL (≈ 0.0127 µM) | 0.9 | 2 ng/mL (≈ 0.00636 µM) | 3.7 | – | – | – | – | –
8 | C[C@@H]1CCC2[C@]34OO[C@](C)(CCC13)O[C@H]4OC(=O)[C@@]21CO1 (stereo partly drawn) | 124 ng/mL (≈ 0.418 µM) | 48 | 96 ng/mL (≈ 0.324 µM) | 123 | – | – | – | – | –
9 | C[C@@H]1CCC2C(=O)C(=O)O[C@@H]3O[C@@]4(C)CCC1[C@@]23OO4 (stereo partly drawn) | 278 ng/mL (≈ 0.985 µM) | 169 | 319 ng/mL (≈ 1.13 µM) | 290 | – | – | – | – | –
10 | C[C@@H]1CCC2C3(CC3)C(=O)O[C@@H]3O[C@@]4(C)CCC1[C@@]23OO4 (stereo partly drawn) | 8.6 ng/mL (≈ 0.0292 µM) | 5.2 | 10 ng/mL (≈ 0.034 µM) | 8.6 | – | – | – | – | –
11 | C[C@@H]1CCC2[C@]34OO[C@](C)(CCC13)O[C@H]4OC(=O)[C@@]2(O)CO (stereo partly drawn) | – | – | – | – | Not Active | Not Active | Not Active | Not Active | –
12 | C[C@@H]1CCC2[C@@]3(CO3)C(O)O[C@@H]3O[C@@]4(C)CCC1[C@@]23OO4 (stereo partly drawn) | 3.4 ng/mL (≈ 0.0114 µM) | 0.9 | 1.8 ng/mL (≈ 0.00603 µM) | 3.4 | – | – | – | – | –
13 | C[C@@H]1CCC2[C@H](O)[C@H](O)O[C@@H]3O[C@@]4(C)CCC1[C@@]23OO4 (stereo partly drawn) | 7.4 ng/mL (≈ 0.0258 µM) | 3.8 | 7.3 ng/mL (≈ 0.0255 µM) | 7.6 | – | – | – | – | –
14 | C/C=C1\C(=O)O[C@@H]2O[C@@]3(C)CCC4[C@H](C)CC[C@@H]1[C@]42OO3 (stereo partly drawn) | 2.3 ng/mL (≈ 0.00781 µM) | 1.1 | 2.1 ng/mL (≈ 0.00713 µM) | 2.3 | – | – | – | – | –
15 | C=C1C2CC[C@@H](C)C3CC[C@@]4(C)OO[C@@]23[C@H](O[C@@H]1O)O4 (stereo partly drawn) | 232 ng/mL (≈ 0.822 µM) | 63 | 119 ng/mL (≈ 0.421 µM) | 242 | – | – | – | – | –
16 | C[C@@H]1CC[C@H]2[C@@H](C)C(=O)O[C@@H]3O[C@@]4(C)CC[C@@H]1[C@]32OO4 [ARTEMISININ] | 0.95 ng/mL (≈ 0.00336 µM) | 1 | 1.89 ng/mL (≈ 0.00669 µM) | – | – | – | – | – | 1 ng/mL (≈ 0.00354 µM)
17 | C=C1C(=O)O[C@@H]2O[C@@]3(C)CC[C@H]4[C@H](C)CC[C@@H]1[C@@]24OO3 [ARTEMISITENE] | 7.44 ng/mL (≈ 0.0265 µM) | 2.8 | 5.3 ng/mL (≈ 0.0189 µM) | 7.8 | – | – | – | – | –
